Assay results published in paper PMC1890308, “Anti-calmodulins and Tricyclic Adjuvants in Pain Therapy Block the TRPV1 Channel” (PLoS ONE, 2007).
“And” between values parts separate entries of the source, which are not always exact repeats. Identical values can stand only once. “Also recorded” adds a separate entry of the source. Like-named read-outs stand apart in the source and are kept apart here. Ends that are not written are not given here.

Assays:
[1] = target: TRPV1 (Rattus norvegicus, UniProt O35433); experiment: capsaicin-induced 45Ca2+-uptake in primary rat embryonic DRG cultures; assay type: cell-based; parameters: sensory neurons, expressing TRPV1 endogenously; endogenous in cells; host or cells: primary cultures of embryonic rat dorsal root ganglia (E14, E16); conditions: rat embryonic DRG cultures
Protocol: Primary cultures were prepared from embryonic (E14) rat DRGs. Along with calmidazolium other polycyclic compounds were included in the vanilloid-induced ^45Ca^2+-transport assays.
Primary DRG cultures were prepared from E16 embryonic rats as described previously then plated in 15 cm Petri dishes for 4 h to remove the most adherent fibroblasts. For Ca^2+-uptake studies primary afferents neurons cultured in 96 well plates (3×10^3 cells/well), coated with poly-D lysine/collagen, which yielded both axons and dendrites bearing neurons due to neuronal growth factor supplementation in the culture medium [1]–[4]. The dendrites are large processes branching from the cell body that taper in diameter further from the cell body. The axons are a constant diameter and project over long distances from the cell body. Before the ion transport experiment, culture medium was removed and cells were washed three times. ^45Ca-uptake assays were carried out in “nominally zero Ca^2+” (i.e. 2×10^−5 M extracellular Ca^2+ ([Ca^2+]o) in 25 mM Tris-HCl buffered Hanks' balanced salt solution (pH 7.5), supplemented with 10 µM CaCl2 and 0.8 mM MgCl2medium (HCM) [1]–[4].
(§1) Vanilloid agonist inducible calcium transport was assayed in adherent cell lines ectopically expressing the C-terminally ε-tagged rat TRPV1 (3×10^4 cells/well) and primary cultures prepared from embryonic DRG, seeded in poly-D lysine/collagen coated 96 well plates. […] The previously established cell lines and standardized DRG cultures were extensively characterized for functional cell-based TRPV1 studies [1]–[4]. Immediately before the transport assay, cells were adapted to room temperature (20°C) for 5 min in HCM. ^45Ca^2+-uptake was performed for 10 min at 20°C in HCM using 0.1 µCi ^45Ca^2+ as radioactive tracer in a 100 µl final volume. To stop ^45Ca^2+-uptake, cells were rapidly changed back into 0.2 ml HCM, washed 4 additional times with 0.2 ml HCM, and then lysed in 80 µl/well RIPA buffer (50 mM Tris-HCl, pH 7.5, 150 mM NaCl, 1% Triton X-100, 0.5% deoxycholate, 0.1% SDS, 5 mM EDTA) for 30 min [1]–[4]. Aliquots of the solubilized cell extracts were mixed with 120 µl Microscint-40 and counted in a 96 well plate liquid scintillation counter (TopCount-NXT, Packard).

[2] = target: T1, rat TRPV1 (Rattus norvegicus, UniProt O35433); experiment: capsaicin-induced 45Ca2+-uptake in TRPV1-NIH3T3 cells; assay type: cell-based; conditions: for IC50 / antagonist activity on capsaicin-induced Ca2+-uptake (in words): 2 µM capsaicin; for IC50: 10 min, 2×10^−5 M extracellular Ca2+, room temperature; for effect on Ca2+-uptake at low concentrations in the presence of capsaicin: 2 mM capsaicin (so in the source); for kinetics of Ca2+-transport inhibition: increasing concentrations of capsaicin
T1 construct: expressed in transfected cells
Protocol: Assays were carried out in 2×10^−5 M extracellular Ca^2+ in 96 well plate formats at room temperature (22°C) for 10 min with robotic liquid handling. […] We hypothesized that calmodulin antagonists and some registered drugs may exert their blocking effect with another mechanisms on TRPV1 and not necessarily on their conventional target.
TRPV1-NIH3T3 mouse fibroblast line, ectopically expressing the rat TRPV1 was established previously.
as §1

[3] = test system: formalin-induced pain; parameters: method as in PMID 8883861; conditions: rat, intrathecal; cited from earlier work
[4] = test system: heat-induced tail-flick; parameters: method as in PMID 8883861; conditions: cited from earlier work
[5] = test system: intermediate Ca2+-activated K+ channels (IKCa); conditions: human erythrocytes; cited from earlier work
[6] = target: rat TRPV1 (vanilloid inducible Ca2+-channel/inflammatory pain receptor 1), C-terminally ε-tagged, in TRPV1-NIH3T3 cells (rat) (UniProt O35433)
[7] = target: rat TRPV1 (vanilloid inducible Ca2+-channel/inflammatory pain receptor 1), C-terminally ε-tagged, in TRPV1-NIH3T3 cells (rat) (UniProt O35433); remark: listed apart in the source
[8] = read-out: IC50, inhibition of capsaicin-induced 45Ca2+-uptake

T1 sequence (O35433 whole entry): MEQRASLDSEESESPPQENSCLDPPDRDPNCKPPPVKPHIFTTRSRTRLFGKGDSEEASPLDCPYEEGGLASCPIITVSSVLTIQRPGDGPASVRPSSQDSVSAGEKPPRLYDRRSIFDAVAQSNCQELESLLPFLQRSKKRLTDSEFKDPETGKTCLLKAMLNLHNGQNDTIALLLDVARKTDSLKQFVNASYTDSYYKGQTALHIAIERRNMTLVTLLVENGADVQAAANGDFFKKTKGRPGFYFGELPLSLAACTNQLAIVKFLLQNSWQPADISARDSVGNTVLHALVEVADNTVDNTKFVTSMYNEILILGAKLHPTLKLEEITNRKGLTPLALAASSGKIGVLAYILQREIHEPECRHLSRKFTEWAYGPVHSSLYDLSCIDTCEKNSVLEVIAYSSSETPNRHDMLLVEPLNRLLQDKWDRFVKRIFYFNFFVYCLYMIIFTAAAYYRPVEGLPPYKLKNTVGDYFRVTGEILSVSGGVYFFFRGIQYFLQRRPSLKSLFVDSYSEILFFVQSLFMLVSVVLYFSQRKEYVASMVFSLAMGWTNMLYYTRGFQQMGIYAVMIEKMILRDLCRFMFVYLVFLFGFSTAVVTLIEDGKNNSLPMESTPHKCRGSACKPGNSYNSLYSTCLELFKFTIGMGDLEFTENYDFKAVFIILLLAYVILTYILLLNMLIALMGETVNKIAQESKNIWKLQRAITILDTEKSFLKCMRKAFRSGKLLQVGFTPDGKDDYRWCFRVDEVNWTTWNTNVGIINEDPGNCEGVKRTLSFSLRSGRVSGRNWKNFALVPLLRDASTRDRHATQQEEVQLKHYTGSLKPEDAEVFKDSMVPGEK
Chain of TRPV1 (O35433 whole entry): as above
Chain of rat TRPV1 (vanilloid inducible Ca2+-channel/inflammatory pain receptor 1), C-terminally ε-tagged, in TRPV1-NIH3T3 cells (rat) (O35433 whole entry): as above

In the case of O=C1CSC(c2ccccc2Cl)c2cc(Cl)ccc2N1 (stereo not drawn) [CGP-37157, 7-Chloro - 5 - (2 - chlorophenyl) - 1,5 - dihydro - 4,1 – benzothiazepin - 2(3H) - one], the “blocking activity on capsaicin-induced Ca2+-uptake (in words)” value (“blocking activity” for short) [1] is reported as “partially active” and the “blocking activity” value ([1]; listed as CGP 37157) is reported as “partial blocking activity”.
Work on Fc1cc(F)cc(C[n+]2ccn(CC(OCc3ccc(Cl)cc3Cl)c3ccc(Cl)cc3Cl)c2)c1 (stereo not drawn) [M1, Miconazole 1] yielded an IC50 [2, 8] of 8 µM.
With Clc1ccc(COC(Cn2cc[n+](CC3CCCCC3)c2)c2ccc(Cl)cc2Cl)c(Cl)c1 (stereo not drawn) [M2, Miconazole 2] the IC50 [2, 8] was 8 µM.
For N=C(N)NCCC[C@H](NC(=O)COCC(c1ccccc1)c1ccccc1)C(=O)O [SB 290157, N2-[(2,2-Diphenylethoxy)acetyl]-L-arginine], the “blocking activity” value [1] was “partial blocking activity”.
In the case of NCCCCCCNS(=O)(=O)c1cccc2c(Cl)cccc12 [W-7, N- 6 – aminohexyl – 5 – chloro - 1 naphtalenesulfonamide], the “antagonist activity on capsaicin-induced Ca2+-uptake (in words)” value (“antagonist activity” for short) [2] is reported as “partial or weak inhibitors”, the IC50 [2, 8] is reported as roughly 200 µM and the “effect on Ca2+-uptake at low concentrations in the presence of capsaicin” value (shortened to “effect on Ca2+-uptake”) [2] is reported as “increased Ca^2+-uptake”. The “analgesia in both phases of formalin tests” value [3] was “analgesic”, the “effect on heat-induced tail-flick latency” value [4] was “inhibit” and the “activity on IKCa channels (in words)” value [5] was “inactive”.
In the case of NCCCCNS(=O)(=O)c1ccc2c(Cl)cccc2c1 [W-13, N - (4 - Aminobutyl) – 5 - chloro-2-naphthalenesulfonamide], the “antagonist activity” value [2] is reported as “partial or weak inhibitors”, the IC50 [2, 8] is reported as greater than 300 µM and the “effect on Ca2+-uptake” value [2] is reported as “increased Ca^2+-uptake”.
With CN(C)CCC=C1c2ccccc2CCc2ccccc21 [amitriptyline] the IC50 [2, 8] was ~60 µM and 60 µM.
Compound COc1cc(CNC(=O)CCCC/C=C/C(C)C)ccc1O [capsaicin] has an ED100 for capsaicin-induction ([2]; pH 7.5) of roughly 1 µM.
For Oc1cc2c(cc1O)CN(C(=S)NCCc1ccc(Cl)cc1)CCC2 [capsazepine], the “kinetics of Ca2+-transport inhibition” value [2] was “shifted the capsaicin dose-response curves right”.
In the case of NC(=O)N1c2ccccc2C=Cc2ccccc21 [carbamazepine], the “antagonist activity” value [2] is reported as “inactive” and the “antagonist activity” value ([2]; listed as Carbamazepine) is reported as “completely inactive”.
With CN(C)CCCN1c2ccccc2Sc2ccc(Cl)cc21 [chlorpromazine] the “antagonist activity” value [2] was “full antagonists”, the IC50 [2, 8] was 70 µM and the “kinetics of Ca2+-transport inhibition” value [2] was “non-competitive inhibition kinetics”.
In the case of Fc1ccc(C(c2ccc(F)cc2)N2CCN(C/C=C/c3ccccc3)CC2)cc1 [flunarizine], the “blocking activity” value [1] is reported as “partially active; also recorded: partial blocking activity”.
In the case of OCCN1CCN(CCCN2c3ccccc3Sc3ccc(C(F)(F)F)cc32)CC1 [fluphenazine], the “antagonist activity” value [2] is reported as “partial or weak inhibitors”, the IC50 [2, 8] is reported as roughly 250 µM and the “effect on Ca2+-uptake” value [2] is reported as “increased Ca^2+-uptake”.
In the case of NCC1(CC(=O)O)CCCCC1 [gabapentine], the “antagonist activity” value [2] is reported as “partial inhibition”.
For CN1CCN(CCCN2c3ccccc3Sc3ccc(C(F)(F)F)cc32)CC1 [trifluoperazine], the “antagonist activity” value [2] is given as “full antagonists”, the IC50 [2, 8] is given as 9 µM and < 10 µM and the “activity on IKCa channels (in words)” value [5] is given as “inactive”.
For APETERAAVAIQAQFRKFQKKKAGS [camstatin], the IC50 ([2]; IC50, inhibition of capsaicin-induced 45Ca2+-uptake) was 11 µM and 20 µM.
Compound Camstatin (peptide) has an inhibition of capsaicin-induced Ca2+-uptake in TRPV1-NIH3T3 cells [6] of 20 µM and an inhibition of capsaicin (2 µM)-induced 45Ca2+-uptake in intact TRPV1-NIH3T3 cells, 10 min, camstatin co-incubated in the uptake medium [7] of 11 µM.
